From patent publication US11149028B2, “Methods for treating melanoma using small molecules” (NOVA SOUTHEASTERN UNIVERSITY, priority 2016, dated 2021)
“Also recorded” adds a separate entry of the source.

What was measured:
[1] = system: LC3-II and beclin-1 in M14 cells; experiment: Western blotting for LC3 and beclin-1, M14; type: cell-based, human; settings: 24 h, 100 μM
Procedure: 1×10^6 of WM266-4 or M14 cells were seeded in 3 mL of E-MEM or RPMI-1640 medium supplemented with 10% FBS and 1% penicillin/streptomycin in 6 cm plates. […] After washing with TBST, the membranes were treated with chemilumiscent horseradish peroxidase detection reagent (Thermo Scientific, Cat #32209) and exposed to autoradiography film (Denville Scientific, Inc., Metuchen, N.J., USA, cat #E3018). ImageJ software (NIH, Bethesda, Md.) was used to quantify the intensity of proteins bands. The protein bands were normalized against loading controls (β-actin) and expressed as a fold of an untreated control.

hnRNP H2 = experiment: DARTS with western blot; type: binding, human; settings: WM266-4 lysates
Description: (§1) (FIG. 26A, DARTS workflow). Proteins that bind the lead present as bands of differential intensity on SDS-PAGE and are identified using proteomic techniques. […] Bands from non-treated control and sample treated with 2155-14 were excised, trypsinized, and run on LC/MS/MS. […] In addition to lamin A/C, lamin B2, transketolase (TKT), and cytoskeleton-associated protein 4 (CKAP4) were also identified as possible targets (Table 7 shown in FIG. 27). The exclusive unique peptide counts were too close to make the identification of one over the other with confidence.
(§2) WM266-4 melanoma cell lysates were prepared using a routine protocol with commercially available M-PER buffer supplemented with protease and phosphatase inhibitors. Lysates were split into control and compound test portions, and DMSO and 2155-14 were added to the respective lysate portions and incubated at RT for 1 h to allow for 2155-14 binding to its target(s). Pronase dilutions (1:100. 1:300, 1:1000. 1:3000 and 1:10000, Roche #10165921001) were prepared from 10 mg/mL stock. Lysates were split into 5 aliquots, and pronase dilutions were added to lysate aliquots and incubated at RT for 30 min. […]
(§3) Each sample was analyzed by liquid-chromatography-tandem MS (LC-MS/MS) using an EASY-nLC 1000 system coupled to a Q Exactive mass spectrometer (Thermo Fisher Scientific). […]

hnRNP A2/B1 = experiment: DARTS with western blot; type: binding, human; settings: WM266-4 lysates
Description: as §1, §2, §3

WM266-4 cells [2] = experiment: Mitochondrial potential assay; type: cell-based, human; settings: 1 and 4 h; time stated at the place
Procedure: 5,000 WM266-4 cells were seeded in 100 μL of EMEM medium supplemented with 10% FBS in 24-well plate. The cells were treated with carbonyl cyanide m-chlorophenyl hydrazone (CCCP, 25-50 μM) as a pharmacological control and 1-100 μM of 2155-14. After 1, 4, and 24 h, the cells were stained with 200 nM of Mito-Tracker dye (ThermoFisher cat #M22425) and DAPI for 1 h. Finally, the cells were washed with PBS and media was added. The cells were imaged and analyzed using Cytation 5 imager using Cy5 and DAPI filter sets (Biotek Inc, Winoosky, Vt.). To calculate staining intensity, the Object Sum Area value from Cy5 channel was obtained and divided by number of cells using DAPI channel. Both Cy5 and DAPI cell counts were conducted using optimized algorithm in automatic mode. 3 replicate wells were used.

lamin A/C = experiment: DARTS (drug affinity responsive target stability); type: binding, human
Description: as §1, §2, §3

WM266-4 cells [3] = experiment: Annexin V flow cytometry assay; type: cell-based, human; settings: 100 μM
Description: After 4, 24 and 48 hrs of compound exposure the adherent and floating cells were combined and stained using the TACS Annexin V-FITC Apoptosis detection kit (Trevigen Inc, Gaithersburg, Md., USA) using manufacturer's protocol. Viable, necrotic, early and late apoptotic cells were counted using Accuri flow cytometer as per the manufacturer instructions.

## O=C1NC[C@H](Cc2ccccc2)N(C[C@@H]2CCCN2C[C@@H](CC2CCCCC2)N2C[C@H](Cc3ccc(O)cc3)N(CCc3ccccc3)C(=O)C2=O)C1=O [Compound 2155-14, (S)-1((R)-1((S)-2-(((S)-6-benzyl-2,3-dioxopiperazin-1-yl)methyl)pyrrolidin-1-yl)-3-cyclohexylpropan-2-yl)-5-(4-hydroxybenzyl)-4-phenethylpiperazine-2,3-dione]
[1]
  LC3-II level, M14: dose dependent increase
  beclin-1 level, M14: dose dependent increase
hnRNP H2
  protection of hnRNPH2 from pronase: protects these proteins from pronase proteolysis
hnRNP A2/B1
  protection of hnRNPA2/B1 from pronase: protects these proteins from pronase proteolysis
WM266-4 cells [2]
  mitochondrial potential: no significant effect 1 h after the addition of compounds; also recorded: At 4 h, mitochondrial potential was decreased; also recorded: no significance between untreated control and cells treated with 2155-14
Lamin A/C; 100 μM, 1:1,000 pronase
  DARTS-LC-MS/MS identification of protected band: Lamin A/C was the protein with the highest score
Lamin A/C; WM266-4 lysates, western blot
  protection of lamin A/C from pronase: protects these proteins from pronase proteolysis
WM266-4 cells [3]
  early apoptotic and necrotic cells, of total population: less than 5%
WM266-4 cells [3]; 24 h
  cells undergoing late apoptosis: 18%
WM266-4 cells [3]; 48 h
  cells undergoing late apoptosis: 32%
WM266-4 cells [3]; 48 h, 10 μM pan-caspase inhibitor
  cells undergoing late apoptosis in presence of Z-VAD-FMK: 29%
